Reference: US20240173419A1, “CDK2 DEGRADERS AND USES THEREOF” (Kymera Therapeutics, Inc., priority 2022, published 2024)

Molecular target: T1, CDK2 (Homo sapiens, UniProt P24941)
T1 construct: endogenous in cells; host or cells: MKN1 cells
Test: CDK2 degradation in MKN1 cells (AlphaLISA)
Format: cell-based
Conditions: 14 h incubation; for DC50: read-out: CDK2 degradation 14 h: Mean external-Abs DC50
Summary of the method: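 MKN1 cells (2e4/well) treated 14 h at 37° C with 11-point 1:5 dilutions (0.001 nM-10 μM, 0.1% DMSO). CDK2 in lysates quantified by AlphaLISA, no-cell background subtracted; DC50 from four-parameter logistic fit.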

Row | CDK2 degradation 14 h: Average Dmax % | DC50 [nM] | Compound
1 | D (D (<25%)) | > 1000 | Cc1cc(S(=O)(=O)C2CC3(CCN(CC4CCN(c5cccc6c5n(C)c(=O)n6C5CCC(=O)NC5=O)CC4)CC3)C2)ccc1Nc1ncc2cc(Cl)c(=O)n(C(C)C(C)(C)O)c2n1 (centres unmarked) [I-838]
2 | A (A (>75% o)) | < 100 | Cc1cc(S(=O)(=O)N2CCC(N(C)CC3CCN(c4cccc5c4n(C)c(=O)n5C4CCC(=O)NC4=O)CC3)CC2)ccc1Nc1ncc2cc(Cl)c(=O)n(C3CCCC34CC4)c2n1 (centres unmarked) [I-359]
3 | A (A (>75% o)) | < 100 | CC1CN(CC2CCN(c3ccc(C4CCC(=O)NC4=O)c(F)c3)CC2)CCC1NS(=O)(=O)c1ccc(Nc2ncc(C(F)(F)F)c(N3CCCC(C)(O)C3)n2)c(F)c1 (centres unmarked) [I-1061]
4 | A (A (>75% o)) | < 100 | Cc1cc(S(=O)(=O)NCCCN2CCC(OC3CCN(c4ccc5c(c4)n(C)c(=O)n5C4CCC(=O)NC4=O)CC3)CC2)ccc1Nc1ncc2cc(Cl)c(=O)n(C3CCCC3)c2n1 (centres unmarked) [I-433]
5 | A (A (>75% o)) | < 100 | Cc1cc(S(=O)(=O)NC2CCC(CN3CCN(c4cc(F)c(C5CCC(=O)NC5=O)cc4C)CC3)CC2)ccc1Nc1ncc(C(F)(F)F)c(N2CCCC(C)(O)C2)n1 (centres unmarked) [I-806]
6 | A (A (>75% o)) | 100 to 500 | Cc1cc(S(=O)(=O)C2CC3(CCN(CC4CCN(c5cccc(OC6CCC(=O)NC6=O)c5)CC4)CC3)C2)ccc1Nc1ncc2cc(Cl)c(=O)n(C3CCCC3)c2n1 (centres unmarked) [I-74]
7 | A (A (>75% o)) | < 100 | Cc1cc(S(=O)(=O)NCCO[C@H]2CC[C@H](CN3CCC(c4ccc5c(c4)n(C)c(=O)n5C4CCC(=O)NC4=O)CC3)CC2)ccc1Nc1ncc2cc(C(F)F)c(=O)n(C(C)C)c2n1 (some centres unmarked) [I-428]
8 | B (B (>50% -75%)) | > 1000 | Cc1cc(S(=O)(=O)NC2CCC(CN3CCN(c4ccc(C5CCC(=O)NC5=O)c(C(F)(F)F)c4)CC3)CC2)ccc1Nc1ncc(C(F)(F)F)c(N2CCCC(C)(O)C2)n1 (centres unmarked) [I-1138]
9 | A (A (>75% o)) | < 100 | Cc1cc(S(=O)(=O)NC2CC(N3CCN(CC4CCN(c5cccc6c5n(C)c(=O)n6C5CCC(=O)NC5=O)CC4)CC3)C2)ccc1Nc1ncc(C(F)(F)F)c(N2CCCC(C)(O)C2)n1 (centres unmarked) [I-834]
10 | B (B (>50% -75%)) | < 100 | Cc1cc(S(=O)(=O)CCCO[C@H]2CC[C@H](CN3CCC(c4ccc5c(c4)n(C4CCC(=O)NC4=O)c(=O)n5C)CC3)CC2)ccc1Nc1nccc(-c2cnc(C)n2C(C)C)n1 (some centres unmarked) [I-4]
11 | A (A (>75% o)) | < 100 | Cc1cc(S(=O)(=O)C2CC3(CCN(CC4CCN(c5ccc6c(c5)n(C)c(=O)n6C5CCC(=O)NC5=O)CC4)CC3)C2)ccc1Nc1ncc2cc(Cl)c(=O)n(C3CCCC3)c2n1 (centres unmarked) [I-57]
12 | A (A (>75% o)) | < 100 | Cc1cc(S(=O)(=O)N2CCC(CN(C)C3CCN(c4cccc5c4n(C)c(=O)n5C4CCC(=O)NC4=O)CC3)CC2)ccc1Nc1ncc2cc(C(F)F)c(=O)n(C3CCCC3)c2n1 (centres unmarked) [I-438]
13 | A (A (>75% o)) | < 100 | CC1(O)CCCN(c2nc(Nc3ccc(S(=O)(=O)NC4CCC(CN5CCN(c6ccc(C7CCC(=O)NC7=O)c(F)c6)CC5)CC4)cc3)ncc2C(F)(F)F)C1 (centres unmarked) [I-943]
14 | B (B (>50% -75%)) | 100 to 500 | CC1(O)CCCN(c2nc(Nc3ccc(S(=O)(=O)NC4CC5CCC(C4)N5CC4CCN(c5ccc(C6CCC(=O)NC6=O)c(F)c5)CC4)cc3F)ncc2C(F)(F)F)C1 (centres unmarked) [I-1057]
15 | A (A (>75% o)) | < 100 | COc1cc(N2CCN(CC3CCC(NS(=O)(=O)c4ccc(Nc5ncc(C(F)(F)F)c(N6CCCC(C)(O)C6)n5)c(C)c4)CC3)CC2)c(F)cc1NC1CCC(=O)NC1=O (centres unmarked) [I-816]
16 | A (A (>75% o)) | < 100 | Cc1cc(S(=O)(=O)N2CCC(CCN3CCN(c4cccc5c4n(C)c(=O)n5C4CCC(=O)NC4=O)CC3)CC2)ccc1Nc1ncc2cc(Cl)c(=O)n(C3CCCC3)c2n1 (centres unmarked) [I-423]
17 | A (A (>75% o)) | < 100 | Cc1cc(S(=O)(=O)NCCOC2CCC(N(C)CC3CCN(c4ccc5c(c4)n(C)c(=O)n5C4CCC(=O)NC4=O)CC3)CC2)ccc1Nc1ncc2ccc(=O)n(C3CCCC3)c2n1 (centres unmarked) [I-469]
18 |  | < 100 | Cc1cc(S(=O)(=O)NC2CCC(CN3CCN(c4ccc(C5CCC(=O)NC5=O)c(F)c4)CC3)CC2)ccc1Nc1ncc(C(F)(F)F)c(N2CCCC(C)(O)C2)n1 (centres unmarked) [I-1072]
19 | D (D (<25%)) | > 1000 | Cc1cc(S(=O)(=O)N2CCC(OCC#Cc3cccc4c3n(C)c(=O)n4C3CCC(=O)NC3=O)CC2)ccc1Nc1ncc2ccc(=O)n(C3CCCC3)c2n1 (centres unmarked) [I-447]
20 | A (A (>75% o)) | < 100 | CC1(O)CCCN(c2nc(Nc3ccc(S(=O)(=O)NC4CCC(CN5CCN(c6ccc(C7CCC(=O)NC7=O)c(Cl)c6)CC5)CC4)cc3C(F)F)ncc2C(F)(F)F)C1 (centres unmarked) [I-1104]

Row | CDK2 degradation 14 h: Average Dmax % | DC50 [nM] | Compound
21 | A (A (>75% o)) | < 100 | Cc1cc(S(=O)(=O)NCCOCCOCCOCCOCCCc2ccc3c(c2)n(C)c(=O)n3C2CCC(=O)NC2=O)ccc1Nc1ncc2ccc(=O)n(C3CCCC3)c2n1 (centres unmarked) [I-973]
22 | A (A (>75% o)) | < 100 | Cc1cc(S(=O)(=O)NC2CCC(CN3CCN(c4ccc(C5CCC(=O)NC5=O)c(F)c4)CC3)CC2)ncc1Nc1ncc(C(F)(F)F)c(N2CCCC(C)(O)C2)n1 (centres unmarked) [I-1066]
23 | A (A (>75% o)) | < 100 | CC1(O)CCCN(c2nc(Nc3ccc(S(=O)(=O)NC4CCC(CN5CCN(c6ccc(C7CCC(=O)NC7=O)cc6F)CC5)CC4)cc3C(F)F)ncc2C(F)(F)F)C1 (centres unmarked) [I-1113]
24 | A (A (>75% o)) | < 100 | Cc1cc(S(=O)(=O)NC2CCC(CN3CCN(c4c(C)cc(C5CCC(=O)NC5=O)cc4F)CC3)CC2)ccc1Nc1ncc(C(F)(F)F)c(N2CCCC(C)(O)C2)n1 (centres unmarked) [I-1146]
25 | A (A (>75% o)) | 100 to 500 | Cc1cc(S(=O)(=O)C2CCC3(CC2)CN(CC2CCN(c4cccc5c4n(C)c(=O)n5C4CCC(=O)NC4=O)CC2)C3)ccc1Nc1ncc2cc(Cl)c(=O)n(C3CCCC3)c2n1 (centres unmarked) [I-66]
26 | A (A (>75% o)) | < 100 | Cc1cc(S(=O)(=O)NC2CCC(CN3CCN(c4cc(NC5CCC(=O)NC5=O)ccc4F)CC3)CC2)ccc1Nc1ncc(C(F)(F)F)c(N2CCCC(C)(O)C2)n1 (centres unmarked) [I-1120]
27 | A (A (>75% o)) | < 100 | Cc1cc(S(=O)(=O)N[C@H]2C[C@H](N3CCN(CC4CCN(c5ccc(NC6CCC(=O)NC6=O)cc5C)CC4)CC3)C2)ccc1Nc1ncc2ccc(=O)n(C3CCCC3)c2n1 (some centres unmarked) [I-276]
28 | A (A (>75% o)) | < 100 | Cc1cc(S(=O)(=O)C2CC3(CCN(CC4CCN(c5ccc(C6CCC(=O)NC6=O)cc5)CC4)CC3)C2)ccc1Nc1ncc2cc(Cl)c(=O)n(C3CCCC3)c2n1 (centres unmarked) [I-81]
29 | B (B (>50% -75%)) | 100 to 500 | Cc1cc(S(=O)(=O)N2CC3(CCN(CC4CCN(c5ccc6c(c5F)n(C)c(=O)n6C5CCC(=O)NC5=O)CC4)CC3(F)F)C2)ccc1Nc1ncc2ccc(=O)n(C3CCCC3)c2n1 (centres unmarked) [I-836]
30 | A (A (>75% o)) | 100 to 500 | CC1(O)CCCN(c2nc(Nc3ccc(S(=O)(=O)NC4CCC(CN5CCN(c6ccc(C7CCC(=O)NC7=O)cc6F)CC5)CC4)cc3OC(F)F)ncc2C(F)(F)F)C1 (centres unmarked) [I-1111]
31 | A (A (>75% o)) | < 100 | Cc1cc(S(=O)(=O)NC2CC(N3CCN(CC4CCN(c5ccc(NC6CCC(=O)NC6=O)c(Cl)c5)CC4)CC3)C2)ccc1Nc1ncc(C(F)(F)F)c(N2CCCC(C)(O)C2)n1 (centres unmarked) [I-717]
32 | D (D (<25%)) | > 1000 | C[C@]1(O)CCC[C@H]1n1c(=O)c(C(F)F)cc2cnc(NC3CCN(C(=O)COCCOCCOCCOCCNc4cccc5c4C(=O)N(C4CCC(=O)NC4=O)C5=O)CC3)nc21 (some centres unmarked) [I-494]
33 | A (A (>75% o)) | < 100 | CC1(O)CCCN(c2nc(Nc3ccc(S(=O)(=O)NC4CCN(CC5CCN(c6ccc(C7CCC(=O)NC7=O)c(F)c6)CC5)CC45CC5)cc3F)ncc2C(F)(F)F)C1 (centres unmarked) [I-1056]
34 | A (A (>75% o)) | < 100 | Cc1cc(S(=O)(=O)NC2CCC(CN3CCN(c4ccc(C5CCC(=O)NC5=O)cc4F)CC3C)CC2)ccc1Nc1ncc2c(n1)N(C1CCCC(O)C1)C(=O)C21CC1 (centres unmarked) [I-966]
35 | A (A (>75% o)) | < 100 | Cc1cc(S(=O)(=O)NC2CCC(CN3CCN(c4ccc(C5CCC(=O)NC5=O)c(F)c4)CC3)CC2)cc(F)c1Nc1ncc(C(F)(F)F)c(N2CCCC(C)(O)C2)n1 (centres unmarked) [I-1097]
36 | D (D (<25%)) | > 1000 | Cc1cc(S(=O)(=O)C2CC3(CCN(CC4CCN(c5ccc6c(c5F)n(C)c(=O)n6C5CCC(=O)NC5=O)CC4)CC3)C2)ccc1Nc1ncc2cc(Cl)c(=O)n(C3CCOCC3)c2n1 (centres unmarked) [I-130]
37 | A (A (>75% o)) | < 100 | Cc1cc(S(=O)(=O)N[C@@H](C)CO[C@H]2CC[C@H](CN3CCN(c4ccc5c(c4F)n(C)c(=O)n5C4CCC(=O)NC4=O)CC3)CC2)ccc1Nc1ncc2ccc(=O)n(C3CCCC3)c2n1 (some centres unmarked) [I-828]
38 | C (C (>25% -50%)) | > 1000 | CC1(O)CCCN(c2nc(Nc3ccc(S(=O)(=O)NC4CCC(CN5CCN(c6ccc(C7CCC(=O)NC7=O)c(Cl)c6)CC5)CC4)cc3C(F)(F)F)ncc2C(F)(F)F)C1 (centres unmarked) [I-1103]
39 | B (B (>50% -75%)) | > 1000 | Cc1cc(S(=O)(=O)C2CC3(CCN(CC4CCN(c5ccc6c(c5F)n(C)c(=O)n6C5CCC(=O)NC5=O)CC4)CC3)C2)ccc1Nc1ncc(C(F)(F)F)c(C2CCC(O)(C(C)C)CC2)n1 (centres unmarked) [I-516]
